Experimental data taken from US20060293323A1, “Therapeutic Combinations of erb B Kinase Inhibitors and Antineoplastic Therapies” (priority 2002, published 2006).
Structures can show the parent of a compound that is named as a salt.

Legend:
NSCLC, renal cell cancer = test: Clinical administration of CI-1033 alone; type: in vivo, human; conditions: repeated courses and prolonged exposures, patients
Text: The treatment may be prolonged, with or without an off drug rest period.

[1] = test system: L3.6pl human pancreatic carcinoma; test: Orthotopically implanted L3.6pl human pancreatic carcinoma in nude mice, CI-1033 and gemcitabine; type: in vivo; conditions: for loss of initial body weight during therapy: once daily, 5 days per week, 4 weeks
[2] = test system: murine colon carcinoma, C26; test: Subcutaneous murine colon carcinoma C26, CI-1033 and capecitabine; type: in vivo; conditions: for optimum tumor growth delay as single agent: CI-1033 40, 20, 10 mg/kg PO, capecitabine 750, 500 mg/kg PO days 14-16, 21-23, 28-30; for tumor free survivors: single agents or combinations
Procedure: (§1) On Day 0 of the test, each mouse was surgically implanted (subcutaneously) with a fragment of tumor weighing approximately 30 mg. The mice were weighed weekly, and tumor size (width and length in mm) were measured three times each week with standard calipers. Tumor mass for each animal was calculated according to the formula: [formula] where “a” is width of the tumor in mm, and “b” is the length in mm. Evaluation of anticancer activity was evaluated based on the formula T-C, where “T” and “C” are the median time (in days) required for the treated and control (respectively) tumors to reach a pre-determined size of 750 mg (the “evaluation size”). […] Standard agents were diluted as described in the package inserts and administered at various dosage levels in 0.5 mL injections.
(§2) In each experiment, mice bearing established tumors were randomized into one of four treatment groups. One group served as control treatment groups. […] The third group was further divided into four subgroups, each of which received the designated standard agent by the route and schedules indicated below.
(§3) Group 4 was further subdivided into groups receiving combination therapy.
Capecitabine was administered PO at doses of 750 and 500 mg/kg on days 14-16, 21-23, and 28-30.

[3] = test system: H125 human non-small cell lung cancer xenograft; type: in vivo; conditions: CI-1033 PO days 19-23 and 26-30; docetaxel IV days 19, 23, 27
Procedure: as §1, §2, §3

[4] = test system: SCC-7 Murine Squamous Cell Carcinoma; test: SCC-7 murine squamous cell carcinoma, CI-1033 with single-dose radiation
Procedure: Two studies were conducted. […] Radiation was delivered as either a single dose or as multiple fractions over a 5-day period.

Rif-1 sarcoma = test: Rif-1 sarcoma, CI-1033 with multiple doses of radiation; type: in vivo, murine
Text: Radiation at 5 Gy for 5 days produced a tumor growth delay of 28.5 days. […] Data representative of this effect is provided on Table I and FIG. 2.

[5] = test system: A431 human epidermoid, LX-1 lung, A549 lung and GEO colon carcinomas; conditions: several human tumor xenografts; cited from earlier work
[6] = test system: OVCAR-5 Human Ovarian Cancer xenografts; test: Advanced OVCAR-5 xenografts, CI-1033 and cisplatin; type: in vivo
Procedure: One group served as control treatment groups.
Cisplatin at doses of 12, 6, 3, and 1.5 mg/kg was administered IV on days 28, 32, and 34.

in vivo = conditions: female, nude, mouse, in vivo, ip
Procedure: as §1, §2, §3
(§4) Etoposide was administered IP at doses of 80, 50, and 31 mg/kg on days 12, 16 and 20.

[7] = test system: H125 human non-small cell lung cancer xenograft; test: in vivo
Procedure: as §1, §2, §3, §4

[8] = test system: MDA-MB-453 human breast carcinoma cells; test: Paclitaxel-induced apoptosis in vitro, paclitaxel and CI-1033 alone or in combination; type: cell-based; conditions: 3-day exposure to paclitaxel alone
Text: However, none of the inhibitors of the erbB family tyrosine kinases described above are irreversible and are pan erbB tyrosine kinase inhibitors. […] [Inoue, Clin. Cancer Res. 6:4874-84, 2000.]

[9] = test system: H125 human cell lung carcinoma xenografts; type: in vivo; conditions: CI-1033 orally days 32-35; topotecan IP days 26-30
Procedure: as §1, §2, §3

[10] = CI-1033 5 mg/kg PO D 7-18 plus X-ray 10 Gy TO D 7
[11] = CI-1033 10 mg/kg PO D 7-18, no X-ray
[12] = CI-1033 10 mg/kg PO D 7-18 plus X-ray 10 Gy TO D 7
[13] = CI-1033 20 mg/kg PO D 7-18, no X-ray
[14] = CI-1033 20 mg/kg PO D 7-18 plus X-ray 10 Gy TO D 7
[15] = CI-1033 40 mg/kg PO D 7-18, no X-ray
[16] = CI-1033 40 mg/kg PO D 7-18 plus X-ray 10 Gy TO D 7
[17] = capecitabine single agent or capecitabine 750 or 500 mg/kg with CI-1033

C=CC(=O)Nc1cc2c(Nc3ccc(F)c(Cl)c3)ncnc2cc1OCCCN1CCOCC1 [CI-1033, N-[4-(3-chloro-4-fluoro-phenylamino)-7-(3-morpholin-4-yl-propoxy)-quinazolin-6-yl]-acrylamide]
cumulative toxicity (NSCLC, renal cell cancer): no evidence of cumulative toxicity
loss of initial body weight during therapy ([1]; CI-1033 10 mg/kg orally): 6%
loss of initial body weight during therapy ([1]; CI-1033 30 mg/kg orally): 9%
body weight between the end of therapy and terminal sacrifice ([1]; CI-1033 10 and 30 mg/kg): gained weight
optimum tumor growth delay as single agent [2]: 3.6 days
tumor free survivors [2]: 0%
optimum tumor growth delay as single agent [3]: 11.7 days
% Weight Change (maximum treatment-related weight loss) [4, 10]: −15%
CR (complete response) [4, 10]: 2/6
T − C [4, 10]: 11.1 days
Toxic Deaths [4, 10]: 0/6
% Weight Change (maximum treatment-related weight loss) [4, 11]: −1%
Toxic Deaths [4, 11]: 0/6
T − C ([4]; CI-1033 10 mg/kg PO D 7-18, no X-ray, evaluation size 750 mg): 1.3 days
% Weight Change (maximum treatment-related weight loss) [4, 12]: −13%
PR (partial response) [4, 12]: 1/6
T − C [4, 12]: 9.7 days
Toxic Deaths [4, 12]: 0/6
% Weight Change (maximum treatment-related weight loss) [4, 13]: −1%
Toxic Deaths [4, 13]: 0/6
T − C ([4]; CI-1033 20 mg/kg PO D 7-18, no X-ray, evaluation size 750 mg): 0.2 days
% Weight Change (maximum treatment-related weight loss) [4, 14]: −15%
CR (complete response) [4, 14]: 2/6
PR (partial response) [4, 14]: 1/6
T − C [4, 14]: 20.4 days
Toxic Deaths [4, 14]: 0/6
% Weight Change (maximum treatment-related weight loss) [4, 15]: −2%
Toxic Deaths [4, 15]: 0/6
T − C ([4]; CI-1033 40 mg/kg PO D 7-18, no X-ray, evaluation size 750 mg): 0.9 days
% Weight Change (maximum treatment-related weight loss) [4, 16]: −14%
CR (complete response) [4, 16]: 5/6
T − C [4, 16]: 26.0 days
Toxic Deaths [4, 16]: 0/6
enhancement of antitumor effect by combination with radiation ([4]; single-dose radiation 1 hour after first of 12 PO doses of CI-1033): 91%
enhancement compared to radiation alone (Rif-1 sarcoma; 5 Gy radiation for 5 days, each 1 hour after daily CI-1033): 42%
tumor growth delay (Rif-1 sarcoma; CI-1033 alone, 5-day treatment schedule): 3.7 days

COc1cc2ncnc(Nc3ccc(F)c(Cl)c3)c2cc1OCCCN1CCOCC1 [Iressa]
therapeutic effect of combination with paclitaxel versus either agent alone [5]: greater therapeutic effect

CCCCCOC(=O)Nc1nc(=O)n([C@@H]2O[C@H](C)[C@@H](O)[C@H]2O)cc1F [capecitabine, 5′-deoxy-5-fluoro-N-[(pentyloxy)carbonyl]-cytidine]
optimum tumor growth delay as single agent [2]: 22.5 days
complete responses [2, 17]: 3/6
partial responses [2, 17]: 2/6
tumor free survivors [2]: 8%

N.N.[Cl][Pt][Cl] [cisplatin, cis-diaminodichloroplatinum (II)]
anticancer effects when administered alone ([6]; CI-1033 PO days 28-37, cisplatin IV days 28, 32, 34): Neither cisplatin nor CI-1033 when administered alone produced meaningful anticancer effects
tumor growth delay (T-C) ([6]; cisplatin alone 12 mg/kg): 10 days

CC(=O)O[C@@]12CO[C@@H]1C[C@H](O)[C@@]1(C)C(=O)[C@H](O)C3=C(C)[C@@H](OC(=O)[C@H](O)[C@@H](NC(=O)OC(C)(C)C)c4ccccc4)C[C@@](O)([C@@H](OC(=O)c4ccccc4)[C@H]21)C3(C)C [docetaxel, reference compound]
optimum tumor growth delay as single agent [3]: 35.7 days

COc1cc([C@@H]2c3cc4c(cc3[C@@H](O[C@@H]3O[C@@H]5CO[C@@H](C)O[C@H]5[C@H](O)[C@H]3O)[C@H]3COC(=O)[C@H]23)OCO4)cc(OC)c1O [etoposide, 4′-demethylepipodophyllotoxin 9-[4,6-0-(R)-ethylidene-(beta)-D-glucopyranoside]]
MTD (in vivo): 50 mg/kg
delaying the growth of H125 as a single agent ([7]; etoposide IP days 12, 16, 20 at 50 mg/kg, CI-1033 200, 124, 77 mg/kg): relatively ineffective
tolerability ([7]; etoposide doses 80, 50, 31 mg/kg IP): well tolerated only at the lowest dose tested

Nc1ccn([C@@H]2O[C@H](CO)[C@@H](O)C2(F)F)c(=O)n1 [gemcitabine, 2′-deoxy-2′,2′-difluoro-cytidine, reference compound]
loss of initial body weight at terminal sacrifice ([1]; gemcitabine alone 125 mg/kg twice weekly): 4%
body weight change over the therapy period ([1]; gemcitabine alone 125 mg/kg twice weekly, tumor bearing nude mice): slight weight gain

CC(=O)O[C@H]1C(=O)[C@@]2(C)[C@H]([C@H](OC(=O)c3ccccc3)[C@]3(O)C[C@H](OC(=O)[C@H](O)[C@@H](NC(=O)c4ccccc4)c4ccccc4)C(C)=C1C3(C)C)[C@]1(OC(C)=O)CO[C@@H]1C[C@@H]2O [paclitaxel]
cells undergoing apoptosis [8]: 23%

CC[C@@]1(O)C(=O)OCc2c1cc1n(c2=O)Cc2cc3c(CN(C)C)c(O)ccc3nc2-1 [topotecan, (S)-10-[(dimethylamino)methyl]-4-ethyl-4,9-dihydroxy-1H-pyrano[3′,4′:6,7]indolizino[1,2-b]quinoline-3,14-(4H,12H )-dione monohydrochloride]
anticancer effectiveness measured by tumor growth delay, single agents [9]: meaningful anticancer effectiveness
